Measured values taken from patent US11261175B2 (priority 2017, dated 2022).

Key:
Format in all cases: cell-based
[1] = tested on: HCV replicon NK5.1-Gluc (genotype 1b); assay: Anti-HCV activity using HCV replicon NK5.1-Gluc (genotype 1b) in Huh 7.5.1 cells, luciferase readout; conditions: Hepatitis C virus, 72 h; Huh 7.5.1 cells with NK5.1-Gluc replicon, 3 days, Gaussia luciferase; read-out: HCV wt. GT-1b
[2] = tested on: JFH5a-Rluc-ad34 virus (HCV GT-2a); assay: Anti-HCV activity using HCVcc (JFH5a-Rluc-ad34 virus) in Huh 7.5.1 cells, Renilla luciferase readout; conditions: Hepatitis C virus, GT2A, Huh-7.5.1, 72 h, read-out: HCV wt. GT-2a
Description: <Experimental Example 1> Measurement of Anti-HCV Activity of Compounds of Examples Using HCVcc
Step 1: Cell Line and Cell Culture
Huh 7.5.1 cells were grown in Dulbecco's Modified Eagle's medium (DMEM; Gibco) supplemented with antibiotics (100 U/mL penicillin, 10 μg/mL streptomycin) and 10% heat-inactivated fetal bovine serum (ΔFBS; PEAK) in a CO2 incubator at 37° C. with […].
Huh7.5.1 cells were transfected with in vitro transcription RNA of JFH5a-Rluc-ad34, a derivative of JFH1 with adaptive mutations in E2 and p7 regions, by electroporation. JFH5a-Rluc-ad34 virus contains Renilla luciferase (Rluc), which is convenient for virus proliferation assay. The cell culture medium containing HCV was collected 3-5 days after the electroporation and then filtered through a […] pore size filter.
Step 3: Antiviral Activity Test Using Infectious HCV Particles
Huh 7.5.1 cells were inoculated with JFH5a-Rluc-ad34 virus and incubated for 4 hours. Four hours after the virus inoculation, the Huh7.5.1 cells infected with HCV were cultured in the medium containing the compound of examples serially diluted. Three days later, the cells were harvested and the intracellular luciferase activity was measured using Renilla luciferase assay system (Promega). Finally, the luciferase activity was normalized with those obtained from the negative control cells (mock-treated cells).

[3] = tested on: HCV replicon S52-Feo (genotype 3a); assay: Anti-HCV activity using HCV replicon S52-Feo (genotype 3a) in Huh 7.5.1 cells, luciferase readout; conditions: Hepatitis C virus, 72 h; Huh 7.5.1 cells with S52-Feo replicon, 3 days, firefly luciferase; read-out: HCV wt. GT-3a
[4] = tested on: HCV genotype 1b replicon with NS5A L31V mutation; assay: Transiently transfected assay of genotype 1b resistance mutant RNA L31V; conditions: Hepatitis C virus, Huh-7.5.1, 72 h, read-out: HCV Mutation L31V
Description: (§1) <Experimental Example 3> Transiently Transfected Assay of Genotype 1b Resistance Mutant RNAs
(§2) Replicon genomes substituted with Y93H, L31V and L31V+Y93H (double mutant), the resistance mutants to Daclatasvir with mutations at the NS5A protein domain 1.
(§3) These HCV resistance mutant genomes were linearized with scal restriction enzyme, and then the mutated HCV RNA was synthesized through in vitro transcription. Huh 7.5.1 cells were individually electroporated with HCV RNA with resistant mutations and plated in a 12 well plate. After 4 hours, Huh7.5.1 cells were seeded in DMEM containing the compounds of examples serially diluted for 3 days. Three days later, the cells were harvested and the intracellular luciferase activity was measured. The luciferase activity was normalized with those obtained from the negative control cells (mock-treated cells).

[5] = tested on: HCV genotype 1b replicon with NS5A Y93H mutation; assay: Transiently transfected assay of genotype 1b resistance mutant RNA Y93H; conditions: Hepatitis C virus, Huh-7.5.1, 72 h, read-out: HCV Mutation Y93H
Description: as §1, §2, §3

[6] = tested on: HCV genotype 1b replicon with NS5A L31V+Y93H (double mutant); assay: Transiently transfected assay of genotype 1b resistance mutant RNA L31V+Y93H (double mutant); conditions: Hepatitis C virus, Huh-7.5.1, 72 h, read-out: HCV Mutation L31V + Y93H
Description: as §1, §2, §3

Compound	EC50 [1]	EC50 [2]	EC50 [3]	EC50 [4]	EC50 [5]	EC50 [6]
CCCCC1(CCCC)c2cc(NC(=O)[C@@H]3C[C@H](COC)CN3C(=O)[C@H](NC(=O)OC)c3ccccc3)ccc2-c2ccc(-c3cnc([C@@H]4CCCN4C(=O)[C@@H](NC(=O)OC)C(C)C)[nH]3)cc21 [Example 42, methyl ((S)-1-((S)-2-(5-(9,9-dibutyl-7-((2S,4S)-1-((R)-2-((methoxycarbonyl)amino)-2-phenylacetyl)-4-(methoxymethyl)pyrrolidine-2-carboxyamido)-9H-fluorene-2-yl)-1H-imidazole-2-yl)pyrrolidine-1-yl)-3-methyl-1-oxobutane-2-yl)carbamate]	0.01 to 0.1 nM	0.1 to 1 nM	0.1 to 1 nM	0.001 to 0.01 nM	0.01 to 0.1 nM	1 to 100 nM
CCCCCC1(CCCCC)c2cc(NC(=O)[C@@H]3CCCN3C(=O)[C@H](NC(=O)OC)c3ccccc3)ccc2-c2ccc(NC(=O)[C@@H]3CC4(CN3C(=O)[C@H](NC(=O)OC)c3ccccc3)OCCO4)cc21 [Example 12, methyl ((R)-2-((S)-2-((7-((S)-7-((R)-2-((methoxycarbonyl)amino)-2-phenylacetyl)-1,4-dioxa-7-azaspiro[4.4]nonane-8-carboxamido)-9,9-dipentyl-9H-fluorene-2-yl)carbamoyl)pyrrolidine-1-yl)-2-oxo-1-phenylethyl)carbamate]	0.001 to 0.01 nM	1 to 100 nM	0.01 to 0.1 nM	0.001 to 0.01 nM	0.1 to 1 nM	1 to 100 nM
COC(=O)N[C@@H](C(=O)N1CCC[C@H]1C(=O)Nc1ccc2c(c1)C(CCCC(F)(F)F)(CCCC(F)(F)F)c1cc(NC(=O)[C@@H]3CCCN3C(=O)[C@H](NC(=O)OC)c3ccccc3)ccc1-2)c1ccccc1 [Example 4, dimethyl ((1R,1′R)-((2S,2′S)-(((9,9-bis(4,4,4-trifluorobutyl)-9H-fluorene-2,7-diyl)bis(azanediyl))bis(carbonyl))bis(pyrrolidine-2,1-diyl))bis(2-oxo-1-phenylethane-2,1-diyl))dicarbamate]	0.001 to 0.01 nM	1 to 100 nM	0.01 to 0.1 nM	0.1 to 1 nM	> 100 nM	1 to 100 nM
CCCCC1(CCCC)c2cc(NC(=O)[C@@H]3C[C@@H](OCCOC)CN3C(=O)[C@H](NC(=O)OC)c3ccccc3)ccc2-c2ccc(NC(=O)[C@@H]3C[C@@H](OCCOC)CN3C(=O)[C@H](NC(=O)OC)c3ccccc3)cc21 [Example 34, dimethyl (1R,1′R)-2,2′-((3R,3′R,5S,5′S)-5,5′-(9,9-dibutyl-9H-fluorene-2,7-diyl)bis(azanediyl)bis(oxomethylene)bis(3-(2-methoxyethoxy)pyrrolidine-5,1-diyl))bis(2-oxo-1-phenylethane-2,1-diyl)dicarbamate]	0.1 to 1 nM	1 to 100 nM	1 to 100 nM	0.01 to 0.1 nM	0.01 to 0.1 nM	1 to 100 nM
CCCC1(CCC)c2cc(NC(=O)[C@@H]3CC4(CN3C(=O)[C@H](NC(=O)OC)c3ccccc3)OCCO4)ccc2-c2ccc(-c3cnc([C@@H]4CCCN4C(=O)[C@@H](NC(=O)OC)C(C)C)[nH]3)cc21 [Example 27, methyl ((S)-1-((S)-2-(5-(7-((S)-7-((R)-2-((methoxycarbonyl)amino)-2-phenylacetyl)-1,4-dioxa-7-azaspiro[4.4]nonane-8-carboxyamido)-9,9-dipropyl-9H-fluorene-2-yl)-1H-imidazole-2-yl)pyrrolidine-1-yl)-3-methyl-1-oxobutane-2-yl)carbamate]	0.001 to 0.01 nM	0.01 to 0.1 nM	0.01 to 0.1 nM	0.001 to 0.01 nM	0.001 to 0.01 nM	1 to 100 nM
CCCCCC1(CCCCC)c2cc(NC(=O)[C@@H]3CC(=O)CN3C(=O)[C@H](NC(=O)OC)c3ccccc3)ccc2-c2ccc(NC(=O)[C@@H]3CC(=O)CN3C(=O)[C@H](NC(=O)OC)c3ccccc3)cc21 [Example 17, dimethyl ((1R,1′R)-((5S,5′S)-(((9,9-dipentyl-9H-fluorene-2,7-diyl)bis(azanediyl))bis(carbonyl))bis(3-oxopyrrolidine-5,1-diyl))bis(2-oxo-1-phenylethane-2,1-diyl))dicarbamate]	0.001 to 0.01 nM	1 to 100 nM	0.01 to 0.1 nM	0.001 to 0.01 nM	0.1 to 1 nM	1 to 100 nM
CCCCC1(CCCC)c2cc(NC(=O)[C@@H]3C[C@@H](O)CN3C(=O)[C@H](NC(=O)OC)c3ccccc3)ccc2-c2ccc(NC(=O)[C@@H]3C[C@H](COC)CN3C(=O)[C@H](NC(=O)OC)c3ccccc3)cc21 [Example 38, methyl ((R)-2-((2S,4S)-2-((9,9-dibutyl-7-((2S,4R)-4-hydroxy-1-((R)-2-((methoxycarbonyl)amino)-2-phenylacetyl)pyrrolidine-2-carboxyamido)-9H-fluorene-2-yl)carbamoyl)-4-(methoxymethyl)pyrrolidine-1-yl)-2-oxo-1-phenylethyl)carbamate]	0.01 to 0.1 nM	0.1 to 1 nM	0.01 to 0.1 nM	0.001 to 0.01 nM	0.001 to 0.01 nM	0.01 to 0.1 nM
CCCCC1(CCCC)c2cc(NC(=O)[C@@H]3C[C@H](COC)CN3C(=O)[C@H](NC(=O)OC)c3ccccc3)ccc2-c2ccc(NC(=O)[C@@H]3C[C@H](COC)CN3C(=O)[C@H](NC(=O)OC)c3ccccc3)cc21 [Example 36, dimethyl (1R,1′R)-2,2′-((3S,3′S,5S,5′S)-5,5′-(9,9-dibutyl-9H-fluorene-2,7-diyl)bis(azanediyl)bis(oxomethylene)bis(3-(methoxymethyl)pyrrolidine-5,1-diyl))bis(2-oxo-1-phenylethane-2,1-diyl)dicarbamate]	0.001 to 0.01 nM	0.1 to 1 nM	0.01 to 0.1 nM	0.001 to 0.01 nM	0.001 to 0.01 nM	0.1 to 1 nM
CCCCC1(CCCC)c2cc(NC(=O)[C@@H]3CC4(CC4)CN3C(=O)[C@H](NC(=O)OC)c3ccccc3)ccc2-c2ccc(NC(=O)[C@@H]3CC4(CC4)CN3C(=O)[C@H](NC(=O)OC)c3ccccc3)cc21 [Example 21, dimethyl ((1R,1′R)-((6S,6′S)-(((9,9-dibutyl-9H-fluorene-2,7-diyl)bis(azanediyl))bis(carbonyl))bis(5-azaspiro[2.4]heptane-6,5-diyl))bis(2-oxo-1-phenylethane-2,1-diyl))dicarbamate]	0.001 to 0.01 nM	0.1 to 1 nM	0.01 to 0.1 nM	0.01 to 0.1 nM	1 to 100 nM	1 to 100 nM
CCCCCC1(CCCCC)c2cc(NC(=O)[C@@H]3CCCN3C(=O)[C@H](NC(=O)OC)c3ccccc3)ccc2-c2ccc(NC(=O)[C@@H]3CC(=O)CN3C(=O)[C@H](NC(=O)OC)c3ccccc3)cc21 [Example 19, methyl ((R)-2-((S)-2-((7-((S)-1-((R)-2-((methoxycarbonyl)amino)-2-phenylacetyl)pyrrolidine-2-carboxyamido)-9,9-dipentyl-9H-fluorene-2-yl)carbamoyl)-4-oxopyrrolidine-1-yl)-2-oxo-1-phenylethyl)carbamate]	0.01 to 0.1 nM	1 to 100 nM	1 to 100 nM	0.01 to 0.1 nM	0.1 to 1 nM	1 to 100 nM
CCCCC1(CCCC)c2cc(NC(=O)[C@@H]3CC4(CN3C(=O)[C@H](NC(=O)OC)c3ccccc3)OCCO4)ccc2-c2ccc(-c3cnc([C@@H]4CCCN4C(=O)[C@@H](NC(=O)OC)C(C)C)[nH]3)cc21 [Example 14, methyl ((S)-1-((S)-2-(5-(9,9-dibutyl-7-((S)-7-((R)-2-((methoxycarbonyl)amino)-2-phenylacetyl)-1,4-dioxa-7-azaspiro[4.4]nonane-8-carboxyamido)-9H-fluorene-2-yl)-1H-imidazole-2-yl)pyrrolidine-1-yl)-3-methyl-1-oxobutane-2-yl)carbamate]	0.001 to 0.01 nM	0.01 to 0.1 nM	0.01 to 0.1 nM	0.001 to 0.01 nM	0.001 to 0.01 nM	1 to 100 nM
